The test system of data set [1] is nCoV-2019 (SARS-CoV2) infected Vero E6 cells. The data set is described as follows: microbe, parasite or virus in culture. The format is cell-based, SARS-CoV-2. The settings on record: for inhibition at 0.075 µM: Severe acute respiratory syndrome coronavirus 2, Vero C1008, 0.075 μM.
The conditions of data set [2]: Rats; total of multi dose; cited from earlier work.
For data set [3] the following is noted: mice; following 12 days post injection; cited from earlier work.
The conditions of data set [4]: African green monkeys; 1.6 mg/kg x 14 days; total dose 22.4; cited from earlier work.
For data set [5] the following is noted: cited from earlier work; for Observed toxic effect: humans.

Structures can show the parent of a compound that is named as a salt. Where two headings read alike, the source gives them in different places.

On to `NC(=O)c1cn([C@@H]2O[C@H](CO)[C@@H](O)[C@H]2O)c2ncnc(N)c12` [Oya2, 4-amino-7-((2R,3R,4S,5R)-3,4-dihydroxy-5-(hydroxymethyl)tetrahydrofuran-2-yl)-7H-pyrrolo[2,3-d]pyrimidine-5-carboxamide hydrochloride], for which, in data set [1] (Severe acute respiratory syndrome coronavirus 2, Vero C1008, 0.0094 μM, MOI 0.6 Plate 2, Table 4C), the inhibition at 0.0094 µM amounted to 33.9%. In data set [1] (Severe acute respiratory syndrome coronavirus 2, Vero C1008, 0.0375 μM, Plate 2, Table 6C), the inhibition at 0.0375 µM turned out to be 12.2%. Also, the inhibition at 0.075 µM in data set [1] (MOI 0.6 Plate 1, Table 3C) turned out to be 45.6%; in data set [1] (MOI 0.6 Plate 2, Table 4C), 83.1%. The compound further gave an inhibition at 0.15 µM in data set [1] (Severe acute respiratory syndrome coronavirus 2, Vero C1008, 0.15 μM, MOI 0.6 Plate 1, Table 3C) of 90.1%.

Take `NC(=O)c1cn([C@@H]2O[C@H](CO)[C@@H](O)[C@H]2O)c2ncnc(N)c12` [Oya1, 4-amino-7-((2R,3R,4S,5R)-3,4-dihydroxy-5-(hydroxymethyl)tetrahydrofuran-2-yl)-7H-pyrrolo[2,3-d]pyrimidine-5-carboxamide]: the “LD50, total dose” value in data set [2] is given as 1.2 mg/kg. Also, in data set [3], the amount cleared was 40%. In data set [4], the Effect entry was “lethal”. The “average toxicity margin or selectivity index” value in data set [1] was determined as 4.8. Moreover, the “toxicity margin or selectivity index, high” value in data set [1] is listed as 8.2. For the same compound, the “toxicity margin or selectivity index, low” value in data set [1] was 3.1. Further, the “fold increase in activity for Oya1 over chlorpromazine HCl” value in data set [1] (MOI 0.6, FIG. 4 and FIG. 5) is on record as 1000 fold; in data set [1] (MOI 1.3, FIG. 8 and FIG. 9) it was 1000 fold. Besides, the inhibition at 0.075 µM in data set [1] (MOI 0.6 Plate 1) worked out at 95.5%; in data set [1] (MOI 0.6 Plate 2), 91.9%; in data set [1] (Plate 1), 93.8%; in data set [1] (Plate 2) it was 99.4%. In addition, the anti-cancer activity entry in data set [5] (Phase I clinical trials during the 1960's) was “inactive against cancer”. For the same compound, the tolerability in humans entry in data set [5] (Phase I clinical trials, dosing levels of Table 8) is on record as “well tolerated”. Also, the Observed toxic effect in data set [5] (daily, highest dosing regimen 120 μg/kg/day x 41 days) is on record as 0; in data set [5] (thrice weekly, highest dosing regimen 50-250 μg/kg/day x 45 days), 0; in data set [5] (weekly, highest dosing regimen 200 μg/kg/day x 150 days), 0.

In general, inhibition refers to the drop in the measured response relative to a control, in per cent. A higher inhibition goes with a response far below the control.

The values above are taken from US20210236497A1 (priority 2020, published 2021).
